{"source": "patent US20110251239A1", "about": "“COMBINATION THERAPY FOR THE TREATMENT OF DEMENTIA” (EISAI INC., priority 2010, published 2011)", "origin": "cited, not measured here", "key": {"[1]": {"test_system": "CYP450 enzymes (CYP1A2, -2A6, -2C9, -2D6, -2E1, -3A4)"}, "[2]": {"test_system": "cytochrome P450 isozymes CYP1A2, CYP2C9, CYP2E1 and CYP3A4/5"}}, "data": [{"smiles": "CC12CC3CC(C)(C1)CC(N)(C3)C2", "note": "[memantine, 1-amino-3,5-dimethyl adamantane]", "values": [{"measurement": "inhibition of CYP450 enzymes", "setting": "[1]", "value": "minimal inhibition"}, {"measurement": "induction of cytochrome P450 isozymes", "setting": "[2]", "value": "does not induce"}]}]}
